The results in this text go back to ChEMBL document CHEMBL1128774, “Substrate specificity of farnesyl diphosphate synthase from Bacillus stearothermophilus” (Bioorg Med Chem Lett, 1995).

Calls of active or inactive are those of the source. No cut-off for these calls is given here.

Test [1] relates to Farnesyl diphosphate synthase (Geobacillus stearothermophilus). Nature of the test: Compound was tested for apparent Km values of Farnesyl diphosphate synthase from Bacteria; Active.
Test [2] concerns Farnesyl diphosphate synthase (Sus scrofa). Nature of the test: Compound was tested for apparent Km values of Farnesyl diphosphate synthase from Pig liver; Active.

For the compound `C/C(=C\COP(=O)(O)OP(=O)(O)O)CCCO`, the outcome in test [1] and in test [2] was Active.
